Measured values as given in ChEMBL document CHEMBL1201862, “PubChem BioAssay data set” (2004).
Calls of active or inactive are those of the source.

Assays:
Protein RecA = target: T1, Protein RecA (Mycobacterium tuberculosis, UniProt P9WHJ3); assay: Fluorescence Cell-Free Homogeneous Dose Retest to Identify Inhibitors of RecA-Intein Splicing Activity. [Related pubchem assays (depositor defined):AID2097, AID2223, AID489010, AID492950]; type: functional
T1 sequence (P9WHJ3 whole entry): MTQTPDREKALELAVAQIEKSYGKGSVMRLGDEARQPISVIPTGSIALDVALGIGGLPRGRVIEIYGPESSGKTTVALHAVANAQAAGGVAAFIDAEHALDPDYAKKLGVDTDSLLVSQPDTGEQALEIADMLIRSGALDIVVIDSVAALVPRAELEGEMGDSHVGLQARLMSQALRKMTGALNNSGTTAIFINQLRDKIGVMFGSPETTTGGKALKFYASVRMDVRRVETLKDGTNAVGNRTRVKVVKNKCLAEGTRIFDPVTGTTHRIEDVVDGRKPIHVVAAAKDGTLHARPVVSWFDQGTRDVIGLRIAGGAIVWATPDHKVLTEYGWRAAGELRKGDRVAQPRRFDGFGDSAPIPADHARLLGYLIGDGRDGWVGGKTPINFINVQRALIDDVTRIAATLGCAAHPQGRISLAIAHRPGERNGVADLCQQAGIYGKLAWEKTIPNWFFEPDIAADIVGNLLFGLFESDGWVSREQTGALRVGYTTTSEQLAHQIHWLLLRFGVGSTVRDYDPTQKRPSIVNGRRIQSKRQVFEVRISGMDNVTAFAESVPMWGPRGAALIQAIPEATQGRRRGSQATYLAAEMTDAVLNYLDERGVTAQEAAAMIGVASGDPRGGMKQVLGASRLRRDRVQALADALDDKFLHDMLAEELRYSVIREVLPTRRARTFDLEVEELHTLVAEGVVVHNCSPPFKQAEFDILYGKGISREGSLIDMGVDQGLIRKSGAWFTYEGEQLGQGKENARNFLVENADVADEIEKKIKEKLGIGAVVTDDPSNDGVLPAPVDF

[1] = target: Sphingosine 1-phosphate receptor 1 (Homo sapiens, UniProt P21453); type: functional;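 note: Tango beta-arrestin reporter U2OS cells stimulated with S1P near its EC80; inhibitor potency meaning antagonism of receptor activation by the natural agonist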
BJ [2] = assay: BJ-TERT-LT-ST fibroblast viability loss – cell-based, RAS-independent, luminescence, dose response (AID 1935); type: functional; conditions: Homo sapiens;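 note: BJ fibroblasts immortalized with TERT plus LT and ST oncogenes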
HEK293 [3] = assay: cells; type: functional, cell-based; conditions: Homo sapiens
[4] = target: Sphingosine 1-phosphate receptor 4 (Homo sapiens, UniProt O95977); assay: Fluorescence dose response cell-based high throughput screening assay for antagonists of the Sphingosine 1-Phosphate Receptor 4 (S1P4). [Related pubchem assays: 1524 (Confirmation in triplicates.), 1510 (Primary screen.)]; type: functional
Melanocortin receptor 4 = Melanocortin receptor 4 (Homo sapiens, UniProt P32245); assay: inhibitors of MC4R cAMP signaling – cell-based, TR-FRET, biased antagonists, dose response (AID 602298); type: functional;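 note: antagonist potency against agonist-stimulated cAMP production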
BJ [5] = assay: cells; type: functional, cell-based; conditions: Homo sapiens
[6] = DRD fibroblast viability loss – cell-based, non-viral oncogenic, luminescence, dose response (AID 1934); type: functional; conditions: Homo sapiens
BJ [7] = assay: BJ-TERT fibroblast viability loss – cell-based, RAS-independent, luminescence, dose response (AID 1933); type: functional; conditions: Homo sapiens
[8] = target: Nucleotide-binding oligomerization domain-containing protein 2 (Homo sapiens, UniProt Q9HC29); assay: inhibition of NOD2-driven NF-kB reporter – cell-based, luminescence, uHTS, HEK293 (AID 1566); type: functional
HEK293 [9] = assay: inhibition of NOD1-driven NF-kB reporter – cell-based, luminescence, uHTS, primary screen (AID 1578); type: functional; conditions: Homo sapiens
HEK293 [10] = assay: cells; type: functional, cell-based; conditions: Homo sapiens; remark: listed apart in the source
[11] = Intein inhibitors as potential Tuberculosis drugs, a cytotoxicity screen. [Related pubchem assays (depositor defined):AID2221, AID2223, AID434968, AID435010, AID449749, AID449750, AID489010]; type: functional
HEK293 [12] = assay: cells; type: functional, cell-based; conditions: Homo sapiens; remark: listed apart in the source
HEK293 [13] = assay: NOD2 signaling inhibitors in MDP-stimulated cells, cell-based, uHTS, luminescence (AID 2001); type: functional; conditions: Homo sapiens
[14] = cAMP pathway inhibition in counterscreen cell line – TR-FRET cAMP detection, counter-screen for MC4R biased antagonist project, dose response (AID 602305); type: functional, cell-based;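 note: U2OS cells stimulated with forskolin near its EC80 as the cAMP inducer; potency is for inhibition of forskolin-stimulated cAMP signaling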
[15] = target: T2, Replicative DNA helicase DnaB (Mycobacterium tuberculosis, UniProt P9WMR3); assay: DnaB intein splicing inhibitors, dose response, biochemical, cell-free fluorescence (AID 449749); type: functional
T2 sequence (P9WMR3 whole entry): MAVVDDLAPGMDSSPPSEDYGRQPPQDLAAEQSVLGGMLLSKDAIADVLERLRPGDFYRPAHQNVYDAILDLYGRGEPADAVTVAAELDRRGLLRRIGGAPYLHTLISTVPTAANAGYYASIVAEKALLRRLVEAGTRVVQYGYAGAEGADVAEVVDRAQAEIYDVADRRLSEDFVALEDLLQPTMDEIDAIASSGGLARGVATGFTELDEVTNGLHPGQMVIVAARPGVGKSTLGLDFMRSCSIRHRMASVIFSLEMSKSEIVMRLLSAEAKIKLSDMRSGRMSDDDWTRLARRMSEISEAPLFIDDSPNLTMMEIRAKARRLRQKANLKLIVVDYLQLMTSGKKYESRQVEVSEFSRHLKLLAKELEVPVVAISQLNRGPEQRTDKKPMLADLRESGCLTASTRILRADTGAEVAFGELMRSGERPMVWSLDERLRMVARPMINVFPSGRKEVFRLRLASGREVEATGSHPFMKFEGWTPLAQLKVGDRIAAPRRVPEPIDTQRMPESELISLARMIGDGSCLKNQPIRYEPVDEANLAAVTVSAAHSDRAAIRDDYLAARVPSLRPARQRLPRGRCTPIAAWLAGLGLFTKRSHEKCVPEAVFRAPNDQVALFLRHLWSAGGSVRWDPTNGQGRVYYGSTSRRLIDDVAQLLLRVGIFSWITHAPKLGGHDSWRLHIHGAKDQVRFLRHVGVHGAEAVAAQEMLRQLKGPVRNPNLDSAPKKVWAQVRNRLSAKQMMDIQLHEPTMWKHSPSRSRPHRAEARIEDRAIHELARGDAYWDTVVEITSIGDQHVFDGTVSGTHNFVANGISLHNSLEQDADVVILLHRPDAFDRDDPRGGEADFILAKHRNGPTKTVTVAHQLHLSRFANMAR

[16] = target: Voltage-gated inwardly rectifying potassium channel KCNH2 (Homo sapiens, UniProt Q12809); conditions: Potency;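 note: confirmatory quantitative high-throughput screen measuring inhibition of hERG channel activity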
HEK293 [17] = assay: cells; conditions: Homo sapiens
[18] = target: T3, Polyadenylate-binding protein 1 (Homo sapiens, UniProt P11940); assay: MLLE domain peptide-binding blockers, IC50 – biochemical, fluorescence polarization, FITC-PAM2 peptide, dose response (AID 602259); type: functional; conditions: read-out: IC50_Mean
Beta-galactosidase = Beta-galactosidase (Escherichia coli, UniProt Q8VNN2); assay: detection-enzyme interference by beta-gal modulators – biochemical, E. coli enzyme, set 3, artefact control for CCR6 antagonist project, dose response (AID 504712); type: functional
HEK293 [19] = assay: cells; conditions: Homo sapiens; remark: listed apart in the source
[20] = target: T3, Polyadenylate-binding protein 1; assay: MLLE binding blockers, Cy5 peptide tracer – biochemical, fluorescence polarization, Cy5-PAM2 peptide, secondary, miRNA deadenylation inhibitor project, dose response (AID 602260); type: functional; conditions: read-out: IC50_Mean
[21] = target: T4, Carboxy-terminal domain RNA polymerase II polypeptide A small phosphatase 1 (Homo sapiens, UniProt Q9GZU7); assay: CTDSP1 inhibitors, concentration-response, biochemical, absorbance readout, ultra-high-throughput screen actives (AID 540297); type: functional
T4 sequence (Q9GZU7 whole entry): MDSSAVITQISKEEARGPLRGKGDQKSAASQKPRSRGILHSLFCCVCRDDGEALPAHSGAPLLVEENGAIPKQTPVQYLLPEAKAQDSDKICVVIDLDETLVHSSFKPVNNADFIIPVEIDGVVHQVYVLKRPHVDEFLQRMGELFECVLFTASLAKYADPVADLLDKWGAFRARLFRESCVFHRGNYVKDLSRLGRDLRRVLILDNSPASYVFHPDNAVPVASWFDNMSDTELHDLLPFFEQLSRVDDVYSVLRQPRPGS

[22] = target: Beta-adrenergic receptor kinase 1 (Homo sapiens, UniProt P25098); assay: blockers of aptamer binding to GRK2 – biochemical, flow cytometry beads, FAM-aptamer, powder set 1, dose response (AID 588720)
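Throughout, for CC50: cells exposed to compound for 72 hours before luminescence readout.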

T3 sequence (P11940 whole entry, the tested form may be a part): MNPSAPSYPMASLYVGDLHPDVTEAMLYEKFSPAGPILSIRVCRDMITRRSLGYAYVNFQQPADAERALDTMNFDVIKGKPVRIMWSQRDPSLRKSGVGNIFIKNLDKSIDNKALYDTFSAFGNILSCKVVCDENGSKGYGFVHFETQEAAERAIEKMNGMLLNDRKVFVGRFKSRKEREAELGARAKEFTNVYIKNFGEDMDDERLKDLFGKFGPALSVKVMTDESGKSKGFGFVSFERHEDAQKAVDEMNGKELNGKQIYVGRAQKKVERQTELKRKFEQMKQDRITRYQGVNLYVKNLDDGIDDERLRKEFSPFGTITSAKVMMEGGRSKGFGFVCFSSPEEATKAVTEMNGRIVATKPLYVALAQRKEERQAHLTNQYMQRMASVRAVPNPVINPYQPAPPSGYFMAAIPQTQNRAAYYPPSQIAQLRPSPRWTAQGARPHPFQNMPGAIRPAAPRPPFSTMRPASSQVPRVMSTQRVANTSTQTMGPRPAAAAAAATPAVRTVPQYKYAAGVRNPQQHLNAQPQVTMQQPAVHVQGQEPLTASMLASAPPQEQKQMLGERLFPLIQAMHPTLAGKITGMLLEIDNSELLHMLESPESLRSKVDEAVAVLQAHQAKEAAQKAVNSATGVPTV
Sequence of Sphingosine 1-phosphate receptor 4 (O95977 whole entry): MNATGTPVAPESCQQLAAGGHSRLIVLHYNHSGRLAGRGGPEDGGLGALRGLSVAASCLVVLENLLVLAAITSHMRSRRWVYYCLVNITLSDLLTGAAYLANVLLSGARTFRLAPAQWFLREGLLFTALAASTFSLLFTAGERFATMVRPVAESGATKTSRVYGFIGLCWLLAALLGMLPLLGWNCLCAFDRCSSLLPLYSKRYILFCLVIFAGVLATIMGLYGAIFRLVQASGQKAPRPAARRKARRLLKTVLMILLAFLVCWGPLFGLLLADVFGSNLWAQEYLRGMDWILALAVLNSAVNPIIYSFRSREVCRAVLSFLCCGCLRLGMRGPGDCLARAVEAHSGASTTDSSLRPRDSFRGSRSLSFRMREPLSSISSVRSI
Sequence of Beta-galactosidase (Q8VNN2 whole entry): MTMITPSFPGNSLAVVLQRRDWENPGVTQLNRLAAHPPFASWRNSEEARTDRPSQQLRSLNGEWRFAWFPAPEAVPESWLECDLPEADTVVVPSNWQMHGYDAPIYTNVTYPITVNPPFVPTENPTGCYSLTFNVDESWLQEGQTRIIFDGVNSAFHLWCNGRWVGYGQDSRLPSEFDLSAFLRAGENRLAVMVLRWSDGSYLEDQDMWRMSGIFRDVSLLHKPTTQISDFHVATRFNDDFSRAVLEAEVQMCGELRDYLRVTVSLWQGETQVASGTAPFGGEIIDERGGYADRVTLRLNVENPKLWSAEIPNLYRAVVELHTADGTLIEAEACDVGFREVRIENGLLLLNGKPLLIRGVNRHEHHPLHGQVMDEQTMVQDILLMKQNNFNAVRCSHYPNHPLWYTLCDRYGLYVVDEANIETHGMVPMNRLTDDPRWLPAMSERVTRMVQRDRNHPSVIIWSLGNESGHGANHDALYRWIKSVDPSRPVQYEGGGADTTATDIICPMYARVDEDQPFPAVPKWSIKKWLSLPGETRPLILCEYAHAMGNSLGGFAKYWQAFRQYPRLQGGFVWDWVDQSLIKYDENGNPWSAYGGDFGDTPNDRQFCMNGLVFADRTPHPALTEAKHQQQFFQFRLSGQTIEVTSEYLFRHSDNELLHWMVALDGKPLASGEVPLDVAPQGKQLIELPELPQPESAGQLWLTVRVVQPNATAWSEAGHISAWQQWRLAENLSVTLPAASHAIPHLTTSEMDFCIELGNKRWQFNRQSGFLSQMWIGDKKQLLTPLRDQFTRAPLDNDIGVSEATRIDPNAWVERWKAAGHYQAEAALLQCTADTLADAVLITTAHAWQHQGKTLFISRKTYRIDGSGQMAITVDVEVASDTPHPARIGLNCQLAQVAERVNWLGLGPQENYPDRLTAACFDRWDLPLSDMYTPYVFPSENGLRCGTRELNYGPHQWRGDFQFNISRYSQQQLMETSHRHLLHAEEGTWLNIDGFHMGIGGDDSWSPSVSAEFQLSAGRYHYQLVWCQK
Sequence of Sphingosine 1-phosphate receptor 1 (P21453 whole entry): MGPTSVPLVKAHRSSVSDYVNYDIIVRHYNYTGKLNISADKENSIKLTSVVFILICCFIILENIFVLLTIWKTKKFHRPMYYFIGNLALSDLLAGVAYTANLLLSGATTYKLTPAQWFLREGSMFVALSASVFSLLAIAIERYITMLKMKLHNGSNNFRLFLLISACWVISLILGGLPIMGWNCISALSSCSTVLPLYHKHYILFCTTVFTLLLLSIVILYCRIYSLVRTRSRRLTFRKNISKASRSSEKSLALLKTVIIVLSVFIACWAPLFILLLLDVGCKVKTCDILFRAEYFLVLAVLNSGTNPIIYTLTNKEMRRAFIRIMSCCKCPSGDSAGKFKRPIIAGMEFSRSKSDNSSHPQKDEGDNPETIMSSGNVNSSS
Sequence of Voltage-gated inwardly rectifying potassium channel KCNH2 (Q12809 whole entry): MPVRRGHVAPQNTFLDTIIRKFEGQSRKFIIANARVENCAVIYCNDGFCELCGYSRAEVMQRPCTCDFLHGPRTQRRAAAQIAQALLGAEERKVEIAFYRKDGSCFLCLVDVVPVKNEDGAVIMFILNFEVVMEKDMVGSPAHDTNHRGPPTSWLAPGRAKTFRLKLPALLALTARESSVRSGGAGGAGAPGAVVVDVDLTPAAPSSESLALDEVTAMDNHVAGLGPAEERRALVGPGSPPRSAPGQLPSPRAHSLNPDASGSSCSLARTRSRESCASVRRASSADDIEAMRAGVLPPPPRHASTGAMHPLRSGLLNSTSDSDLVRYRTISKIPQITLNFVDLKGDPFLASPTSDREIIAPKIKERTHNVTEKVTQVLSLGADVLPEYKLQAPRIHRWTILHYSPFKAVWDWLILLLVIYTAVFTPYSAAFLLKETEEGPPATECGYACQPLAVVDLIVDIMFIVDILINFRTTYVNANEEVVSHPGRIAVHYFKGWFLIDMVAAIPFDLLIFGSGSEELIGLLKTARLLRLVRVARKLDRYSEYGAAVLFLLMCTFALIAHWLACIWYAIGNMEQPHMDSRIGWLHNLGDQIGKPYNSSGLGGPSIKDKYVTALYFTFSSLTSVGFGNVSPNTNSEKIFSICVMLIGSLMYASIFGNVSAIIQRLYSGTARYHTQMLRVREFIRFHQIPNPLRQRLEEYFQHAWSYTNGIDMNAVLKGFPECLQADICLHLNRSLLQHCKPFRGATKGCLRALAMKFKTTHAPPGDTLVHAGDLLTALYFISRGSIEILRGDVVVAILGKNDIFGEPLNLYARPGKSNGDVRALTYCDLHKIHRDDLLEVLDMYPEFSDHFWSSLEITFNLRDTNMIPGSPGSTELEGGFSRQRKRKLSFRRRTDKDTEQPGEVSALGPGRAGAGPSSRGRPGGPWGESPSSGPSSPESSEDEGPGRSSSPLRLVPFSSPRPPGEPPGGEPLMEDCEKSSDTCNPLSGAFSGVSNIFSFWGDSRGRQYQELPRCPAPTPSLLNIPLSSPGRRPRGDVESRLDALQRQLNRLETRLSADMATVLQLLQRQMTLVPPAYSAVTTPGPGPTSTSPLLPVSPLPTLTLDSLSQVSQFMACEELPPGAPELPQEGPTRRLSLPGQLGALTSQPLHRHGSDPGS
Sequence of Nucleotide-binding oligomerization domain-containing protein 2 (Q9HC29 whole entry, the tested form may be a part): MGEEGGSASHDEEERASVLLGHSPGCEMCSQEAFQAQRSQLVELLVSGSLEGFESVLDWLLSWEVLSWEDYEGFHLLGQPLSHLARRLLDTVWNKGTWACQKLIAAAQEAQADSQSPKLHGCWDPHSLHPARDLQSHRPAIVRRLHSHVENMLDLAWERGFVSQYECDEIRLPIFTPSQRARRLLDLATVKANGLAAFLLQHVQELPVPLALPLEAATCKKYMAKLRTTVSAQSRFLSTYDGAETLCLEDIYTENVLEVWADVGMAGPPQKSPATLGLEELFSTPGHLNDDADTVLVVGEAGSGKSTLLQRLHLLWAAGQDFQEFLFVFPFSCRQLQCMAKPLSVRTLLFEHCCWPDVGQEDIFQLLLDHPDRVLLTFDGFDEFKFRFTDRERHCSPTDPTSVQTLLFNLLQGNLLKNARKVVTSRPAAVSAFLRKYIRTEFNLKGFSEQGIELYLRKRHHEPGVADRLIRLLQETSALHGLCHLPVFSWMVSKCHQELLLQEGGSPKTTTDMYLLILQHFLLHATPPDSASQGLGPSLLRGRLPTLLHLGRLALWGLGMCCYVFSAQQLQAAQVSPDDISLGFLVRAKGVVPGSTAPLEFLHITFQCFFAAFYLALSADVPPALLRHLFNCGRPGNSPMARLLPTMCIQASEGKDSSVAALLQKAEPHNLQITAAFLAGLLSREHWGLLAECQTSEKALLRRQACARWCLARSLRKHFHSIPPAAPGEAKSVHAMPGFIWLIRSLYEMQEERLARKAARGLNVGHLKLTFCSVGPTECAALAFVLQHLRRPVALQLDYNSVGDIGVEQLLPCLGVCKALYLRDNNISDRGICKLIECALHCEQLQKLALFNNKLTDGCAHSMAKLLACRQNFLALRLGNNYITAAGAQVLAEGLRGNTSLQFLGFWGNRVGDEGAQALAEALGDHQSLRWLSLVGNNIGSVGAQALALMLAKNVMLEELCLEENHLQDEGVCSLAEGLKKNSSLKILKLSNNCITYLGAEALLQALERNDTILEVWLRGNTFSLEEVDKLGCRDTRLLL
Sequence of Melanocortin receptor 4 (P32245 whole entry): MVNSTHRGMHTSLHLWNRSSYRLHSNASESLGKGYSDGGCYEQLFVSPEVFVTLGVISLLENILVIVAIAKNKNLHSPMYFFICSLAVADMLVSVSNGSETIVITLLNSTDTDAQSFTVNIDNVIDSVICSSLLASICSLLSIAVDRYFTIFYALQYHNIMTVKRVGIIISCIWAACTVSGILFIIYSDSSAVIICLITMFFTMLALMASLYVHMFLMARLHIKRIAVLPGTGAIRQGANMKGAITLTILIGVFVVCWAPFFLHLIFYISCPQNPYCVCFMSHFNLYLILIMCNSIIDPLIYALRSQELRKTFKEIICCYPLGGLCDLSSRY

Q: For CC(=O)n1cc(N(C(=O)CCl)c2ccc(C)cc2)c2ccccc21, which EC50 (Protein RecA) is on record?
A: 0.248 µM (active)

Q: And the IC50 [1]?
A: 14.5 µM (not active)

Q: And the EC50 (BJ [2])?
A: 5.27 µM (inconclusive)

Q: What about the IC50 (HEK293 [3]) of the same molecule?
A: > 20 µM (inactive)

Q: And the IC50 [4]?
A: 1.3 µM (active)

Q: And the IC50 (Melanocortin receptor 4)?
A: > 64.6 µM (inactive)

Q: What about the EC50 (BJ [5]) of the same molecule?
A: 2.65 µM (inconclusive)

Q: What about the EC50 [6] of the same molecule?
A: 1.2 µM (active)

Q: What about the EC50 (BJ [7]) of the same molecule?
A: 0.812 µM (inconclusive)

Q: And the EC50 [8]?
A: > 20 µM (inactive)

Q: What about the EC50 (HEK293 [9]) of the same molecule?
A: 16.2 µM (active)

Q: What about the IC50 (HEK293 [10]) of the same molecule?
A: 11.5 µM (active)

Q: And the CC50 [11]?
A: 0.83 µM (active)

Q: What about the IC50 (HEK293 [12]) of the same molecule?
A: 3.22 µM (active)

Q: And the IC50 (HEK293 [13])?
A: 5.38 µM (active)

Q: And the IC50 [14]?
A: > 64.6 µM (inactive)

Q: And the AC50 [15]?
A: 2.53 µM (active)

Q: For C/C=C(/C)C(=O)O[C@H]1C(C)=C2[C@H]([C@@H]1OC(=O)CCCCCCC)[C@@](C)(OC(C)=O)C[C@@H](OC(=O)CCC)[C@@]1(O)[C@H]2OC(=O)[C@@]1(C)O, which AC50 [16] is on record?
A: 22.4 µM (inconclusive)

Q: For CN(C)CCCN1C(=O)c2cccc3c([N+](=O)[O-])ccc(c23)C1=O, which EC50 (HEK293 [17]) is on record?
A: > 59.6 µM (inactive)

Q: And the IC50 [18]?
A: 60.1 µM (inactive)

Q: And the IC50 (Beta-galactosidase)?
A: > 66.6 µM (inactive)

Q: What about the EC50 (HEK293 [19]) of the same molecule?
A: > 59.6 µM (inactive)

Q: And the IC50 [20]?
A: > 66 µM (inactive)

Q: Which IC50 [21] does the source give for C#CCSc1nc2sc3c(c2c(=O)n1C)CCC3 here?
A: 6.45 µM (active)

Q: And the EC50 [22]?
A: 2.72 µM (active)
